Experiment [1] concerns the target T1, Aryl hydrocarbon receptor (Homo sapiens, UniProt P35869).
T1 sequence (P35869 whole entry): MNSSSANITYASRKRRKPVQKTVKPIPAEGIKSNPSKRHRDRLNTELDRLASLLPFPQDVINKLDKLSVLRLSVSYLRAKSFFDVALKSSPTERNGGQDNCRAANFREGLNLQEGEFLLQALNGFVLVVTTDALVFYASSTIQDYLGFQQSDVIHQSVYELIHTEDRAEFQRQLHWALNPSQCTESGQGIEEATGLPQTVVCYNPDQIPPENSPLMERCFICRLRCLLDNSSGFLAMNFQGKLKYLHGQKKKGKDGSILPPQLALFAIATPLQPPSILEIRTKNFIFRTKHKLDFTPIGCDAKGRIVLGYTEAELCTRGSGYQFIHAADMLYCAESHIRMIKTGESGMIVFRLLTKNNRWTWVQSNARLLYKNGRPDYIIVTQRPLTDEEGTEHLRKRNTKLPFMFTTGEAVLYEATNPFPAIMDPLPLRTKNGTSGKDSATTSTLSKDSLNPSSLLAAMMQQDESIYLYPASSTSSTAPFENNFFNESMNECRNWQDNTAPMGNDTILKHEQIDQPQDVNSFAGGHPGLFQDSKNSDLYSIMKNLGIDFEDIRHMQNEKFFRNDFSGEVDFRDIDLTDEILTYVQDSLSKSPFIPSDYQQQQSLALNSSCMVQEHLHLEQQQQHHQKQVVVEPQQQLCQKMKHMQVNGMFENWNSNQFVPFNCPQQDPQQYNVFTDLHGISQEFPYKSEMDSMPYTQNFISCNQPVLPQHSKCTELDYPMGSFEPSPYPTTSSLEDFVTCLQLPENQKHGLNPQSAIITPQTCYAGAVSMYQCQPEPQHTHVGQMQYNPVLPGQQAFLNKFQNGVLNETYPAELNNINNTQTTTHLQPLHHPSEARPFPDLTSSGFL
The experiment is described as follows: Agonist activity at AHR in human HepG2 cells incubated for 4.5 hrs by Luciferase reporter assay. It is filed as cell-based. A general note: A reporter such as luciferase makes a cellular process visible.

For experiment [2], the target named is T1, Aryl hydrocarbon receptor. The experiment is described as follows: Agonist activity at AHR in human AZ-AHR stable HepG2 cells by Luciferase reporter assay.
The target of experiment [3] is T1, Aryl hydrocarbon receptor. The experiment in a line: Agonist activity at AHR in human MDA-MB-468 cells incubated for 24 hrs by Western blot analysis. It is filed as cell-based. On the technique in general: In western blotting, separated proteins are transferred to a membrane and probed.

The record followed here is ChEMBL document CHEMBL4732209, “Indole scaffolds as a promising class of the aryl hydrocarbon receptor ligands” (Eur J Med Chem, 2021).

Molecules are shown by their SMILES. Some results are limits rather than exact numbers.

In general, EC50 refers to the concentration giving half of the maximal effect. On to `O=C(c1cccc(C(F)(F)F)n1)c1c[nH]c2ccccc12`, for which, in experiment [1], the EC50 turned out to be 2 nM.

`OC(c1ccncc1)(c1cc2ccccc2[nH]1)c1cc2ccccc2[nH]1` yielded an EC50 in experiment [2] of 1600 nM.

The compound `N#Cc1cccc(C(=O)c2c[nH]c3ccccc23)n1` came in with a half-maximal effective concentration (EC50) in experiment [1] of 2 nM.

Compound `Brc1c(Br)c(Br)c2c([nH]c3c(Br)c(Br)c(Br)c(Br)c32)c1Br` registered an EC50 in experiment [3] of under 1000 nM.

`Clc1c(Cl)c(Cl)c2c([nH]c3c(Cl)c(Cl)c(Cl)c(Cl)c32)c1Cl` returned an EC50 in experiment [3] of under 1000 nM.

As to `CCOn1c(C(O)(c2ccncc2)c2cc3ccccc3[nH]2)cc2ccccc21` (stereo unspecified), a half-maximal effect in experiment [2] (EC50) was put at 1600 nM.
